Assay results: ChEMBL document CHEMBL4831541, “Antibiotic Conjugates with an Artificial MECAM-Based Siderophore Are Potent Agents against Gram-Positive and Gram-Negative Bacterial Pathogens” (2021)
≈ marks a conversion by molar mass, not a printed value. Calls of active or inactive are those of the source. The calls are words filed in the database; no cut-off is given here.

Columns and labels:
Klebsiella pneumoniae = assay: Antibacterial activity against Klebsiella pneumoniae DSM11678 assessed as growth inhibition by measuring minimal concentration at OD600 by visual inspection with iron-limited media incubated for 24 hrs; assay type: functional, organism-based
Pseudomonas aeruginosa = assay: Antibacterial activity against Pseudomonas aeruginosa DSM24068 assessed as growth inhibition by measuring minimal concentration at OD600 by visual inspection with iron-limited media incubated for 24 hrs; assay type: functional, organism-based
Enterococcus faecium = assay: Antibacterial activity against Enterococcus faecium DSM20477 assessed as growth inhibition by measuring minimal concentration at OD600 by visual inspection with iron-limited media incubated for 24 hrs; assay type: functional
Staphylococcus aureus = assay: Antibacterial activity against Staphylococcus aureus DSM11822 assessed as growth inhibition by measuring minimal concentration at OD600 by visual inspection with iron-limited media incubated for 24 hrs; assay type: functional
Acinetobacter baumannii = assay: Antibacterial activity against Acinetobacter baumannii DSM30007 assessed as growth inhibition by measuring minimal concentration at OD600 by visual inspection with iron-limited media incubated for 24 hrs; assay type: functional
Escherichia coli [1] = assay: Antibacterial activity against Escherichia coli BW25113 assessed as growth inhibition by measuring minimal concentration at OD600 by visual inspection with iron-limited media incubated for 24 hrs; assay type: functional
Escherichia coli [2] = assay: Recovery of growth in Escherichia coli BW25113 delta entA assessed as reversal of growth at 10 uM in presence of 0.1 uM iron(III) chloride hexahydrate by growth recovery assay; assay type: functional, organism-based
Escherichia coli [3] = assay: Recovery of growth in Escherichia coli BW25113 delta entA delta fepA double knock out assessed as reversal of growth at 10 uM in presence of 0.1 uM iron(III) chloride hexahydrate measured after reintroduction of plasmid expressing full length FepA by growth recovery assay; assay type: functional, organism-based
Escherichia coli [4] = assay: Recovery of growth in Escherichia coli BW25113 delta entA delta fepA double knock out assessed as reversal of growth at 10 uM in presence of 0.1 uM iron(III) chloride hexahydrate by growth recovery assay; assay type: functional, organism-based

Question: How did the Activity (Klebsiella pneumoniae) turn out when `CC1(C)S[C@@H]2[C@H](NC(=O)[C@H](NC(=O)CCn3cc(CCCC(=O)Nc4c(CNC(=O)c5cccc(O)c5O)cc(CNC(=O)c5cccc(O)c5O)cc4CNC(=O)c4cccc(O)c4O)nn3)c3ccccc3)C(=O)N2[C@H]1C(=O)O` was run?
Answer: inactive

Question: And the Activity (Pseudomonas aeruginosa)?
Answer: inactive

Question: What about the MIC (Enterococcus faecium) of the same molecule?
Answer: > 57 µM

Question: What about the MIC (Staphylococcus aureus) of the same molecule?
Answer: 5.3 µM (≈ 5.98 µg/mL)

Question: What about the MIC (Acinetobacter baumannii) of the same molecule?
Answer: > 57 µM

Question: What about the MIC (Escherichia coli [1]) of the same molecule?
Answer: 0.89 µM (≈ 1 µg/mL)

Question: For `O=C(NCc1cc(CNC(=O)c2cccc(O)c2O)cc(CNC(=O)c2cccc(O)c2O)c1)c1cccc(O)c1O`, which Activity (Escherichia coli [2]) is on record?
Answer: Active

Question: Which results are given for `CC(=O)Oc1cccc(C(=O)NCc2cc(CNC(=O)c3cccc(OC(C)=O)c3OC(C)=O)c([N+](=O)[O-])c(CNC(=O)c3cccc(OC(C)=O)c3OC(C)=O)c2)c1OC(C)=O`?
Answer: Activity (Escherichia coli [3]): Active; Activity (Escherichia coli [4]): inactive; Activity (Escherichia coli [2]): Active

Question: For `CC(=O)Oc1cccc(C(=O)NCCc2cc(CCNC(=O)c3cccc(OC(C)=O)c3OC(C)=O)c([N+](=O)[O-])c(CCNC(=O)c3cccc(OC(C)=O)c3OC(C)=O)c2)c1OC(C)=O`, which Activity (Escherichia coli [2]) is on record?
Answer: Active

Question: How did the Activity (Escherichia coli [2]) turn out when `CC(=O)Oc1cccc(C(=O)NCc2cc(CNC(=O)c3cccc(OC(C)=O)c3OC(C)=O)cc(CNC(=O)c3cccc(OC(C)=O)c3OC(C)=O)c2)c1OC(C)=O` was run?
Answer: Active

Question: How did the Activity (Klebsiella pneumoniae) turn out when `CC(=O)Oc1cccc(C(=O)NCc2cc(CNC(=O)c3cccc(OC(C)=O)c3OC(C)=O)c(NC(=O)CCOCCOCCOCCOCc3cn(CCC(=O)N[C@@H](C(=O)N[C@@H]4C(=O)N5[C@@H]4SC(C)(C)[C@@H]5C(=O)O)c4ccccc4)nn3)c(CNC(=O)c3cccc(OC(C)=O)c3OC(C)=O)c2)c1OC(C)=O` was run?
Answer: inactive

Question: What about the Activity (Pseudomonas aeruginosa) of the same molecule?
Answer: inactive

Question: What about the MIC (Enterococcus faecium) of the same molecule?
Answer: > 64 µM

Question: And the MIC (Staphylococcus aureus)?
Answer: > 64 µM

Question: What about the MIC (Acinetobacter baumannii) of the same molecule?
Answer: 64 µM (≈ 97.9 µg/mL)

Question: And the MIC (Escherichia coli [1])?
Answer: 0.81 µM (≈ 1.24 µg/mL)

Question: How did the Activity (Klebsiella pneumoniae) turn out when `CC1(C)S[C@@H]2[C@H](NC(=O)[C@H](NC(=O)CCn3cc(CCCC(=O)Nc4c(CNC(=O)c5cccc(O)c5O)cc(CNC(=O)c5cccc(O)c5O)cc4CNC(=O)c4cccc(O)c4O)nn3)c3ccc(O)cc3)C(=O)N2[C@H]1C(=O)O` was run?
Answer: inactive

Question: And the Activity (Pseudomonas aeruginosa)?
Answer: inactive

Question: What about the MIC (Enterococcus faecium) of the same molecule?
Answer: > 56 µM

Question: And the MIC (Staphylococcus aureus)?
Answer: > 56 µM

Question: And the MIC (Acinetobacter baumannii)?
Answer: 56 µM (≈ 64.1 µg/mL)

Question: What about the MIC (Escherichia coli [1]) of the same molecule?
Answer: 0.87 µM (≈ 0.996 µg/mL)

Question: How did the MIC (Enterococcus faecium) turn out when `CCCCCCCCCC(=O)N[C@@H](Cc1c[nH]c2ccccc12)C(=O)N[C@H](CC(N)=O)C(=O)N[C@@H](CC(=O)O)C(=O)N[C@@H]1C(=O)NCC(=O)N[C@@H](CCCN)C(=O)N[C@@H](CC(=O)O)C(=O)N[C@H](C)C(=O)N[C@@H](CC(=O)O)C(=O)NCC(=O)N[C@H](CO)C(=O)N[C@@H]([C@H](C)CC(=O)O)C(=O)N[C@@H](CC(=O)c2ccccc2N)C(=O)O[C@@H]1C` was run?
Answer: 0.62 µM (≈ 1 µg/mL)

Question: And the MIC (Staphylococcus aureus)?
Answer: 0.36 µM (≈ 0.583 µg/mL)

Question: And the MIC (Acinetobacter baumannii)?
Answer: > 39 µM

Question: What about the MIC (Escherichia coli [1]) of the same molecule?
Answer: > 64 µM
